In brackets after ≈: the same amount, converted by molar mass.
Assays:
[1] = tested on: Bordetella bronchiseptica ATCC 4617; test: Broth microdilution MIC/MBC; conditions: ATCC4617
[2] = tested on: Bacillus subtilis ATCC 6633; test: Broth microdilution MIC/MBC; conditions: ATCC6633
[3] = tested on: Klebsiella pneumoniae ATCC 13883; test: Broth microdilution MIC/MBC; conditions: ATCC13883
[4] = tested on: Staphylococcus aureus ATCC 25923; test: Broth microdilution MIC/MBC; conditions: Staphylococcus aureus, ATCC25923
[5] = tested on: Bacillus cereus ATCC 10876; test: Broth microdilution MIC/MBC; conditions: Bacillus cereus, ATCC10876
[6] = tested on: Staphylococcus aureus ATCC 43300; test: Broth microdilution MIC/MBC; conditions: ATCC43300 / MRSA
HeLa cell line = test: MTT cytotoxicity assay; format: cell-based
Experimental: (§1) Among all the newly synthesized compounds, four compounds designated as: 14, 20, 21 and 27 were selected for further testing of their cytotoxic properties at the doses of 10, 25, 50, 75 and 100 µM. The cytotoxic properties of the above compounds were tested on the cancer cell lines, i.e., A549 (ECACC 86012804) (non-small-cell lung cancer), T47D (ECACC 85102201) (breast cancer), HeLa (ATCC® CCL-2™) (cervical cancer) and normal line L929 (NCTC clone 929, ATCC® CCL-1™) (mouse fibroblasts) using the MTT test for 24- and 48 h cultures.
(§2) A549 (ECACC 86012804) (non-small-cell lung cancer) and T47D (ECACC 85102201) (breast cancer) were obtained from ECACC and propagated in Dulbecco’s Minimal Essential Medium, supplemented with 2 mM of glutamine, antibiotics ([…] streptomycin, 1% of 100 U/L penicillin) and 10% Fetal Bovine Serum. HeLa (ATCC® CCL-2™) (cervical cancer) and L929 (NCTC clone 929, ATCC® CCL-1™) (mouse fibroblasts) cell lines were obtained from ATCC and propagated in the Eagle Minimal Essential Medium supplemented with antibiotics ([…] streptomycin, 1% of 100 U/L penicillin) and with 10% and 5% FBS, respectively. The cell line was routinely grown in 75 cm^2 tissue culture flasks and kept in an incubator (humidified atmosphere of 5% CO2 at 37 °C). All examined cell lines were tested against mycoplasma contamination with microbiological assays.
(§3) The cell viability of tested compounds (14, 20, 21 and 27) was assessed by the MTT assay. In brief, the exponentially growing cells were plated in 100 μL/well in 96-well plates. After 24 h culturing, the cells were treated with different concentrations of compounds (range 10–100 μM). After 24 and 48 h of incubation, 10 μL of 5 mg/mL MTT was added to each well and the plates were incubated at 37 °C for additional 4 h. The medium was subsequently removed, the purple-colored precipitates of formazan were dissolved in 100 μL of DMSO. The color absorbance was recorded at 570 nm using a BioTek model EPOCH ELISA plate reader. All experiments were performed in triplicate. The absorbance values were in the range of linearity of the Lambert–Beer law.

T47D cell line = test: MTT cytotoxicity assay; format: cell-based
Experimental: as §1, §2, §3

A549 cell line = test: MTT cytotoxicity assay; format: cell-based
Experimental: as §1, §2, §3

[7] = tested on: Pseudomonas aeruginosa ATCC 9027; test: Broth microdilution MIC/MBC; conditions: ATCC9027
[8] = tested on: Staphylococcus aureus ATCC 29213; test: Broth microdilution MIC/MBC; conditions: ATCC29213

## O=C(N/N=C/c1cc(Br)cc(Br)c1O)c1cccc(I)c1 [Compound 21, N-[(3,5-dibromo-2-hydroxyphenyl)methylidene]-3-iodobenzohydrazide]
[1]
  MIC: > 1000 µg/mL
[2]
  MBC: 31.2 µg/mL (≈ 59.6 µM)
  MIC: 7.81 µg/mL (≈ 14.9 µM)
other
  melting point: 210 to 211 °C
[3]
  MIC: > 1000 µg/mL
[4]
  MBC: 31.2 µg/mL (≈ 59.6 µM)
  MIC: 7.81 µg/mL (≈ 14.9 µM)
[5]
  MBC: 62.5 µg/mL (≈ 119 µM)
  MIC: 15.6 µg/mL (≈ 29.8 µM)
[6]
  MBC: 62.5 µg/mL (≈ 119 µM)
  MIC: 15.6 µg/mL (≈ 29.8 µM)
HeLa cell line; 24h, 10 µM, Repeat No 1
  cell proliferation: 89%
HeLa cell line; 24h, 10 µM, Repeat No 2
  cell proliferation: 88%
HeLa cell line; 24h, 25 µM, Repeat No 1
  cell proliferation: 89%
HeLa cell line; 24h, 25 µM, Repeat No 2
  cell proliferation: 92%
HeLa cell line; 24h, 50 µM, Repeat No 1
  cell proliferation: 86%
HeLa cell line; 24h, 50 µM, Repeat No 2
  cell proliferation: 104%
HeLa cell line; 24h, 75 µM, Repeat No 1
  cell proliferation: 104%
HeLa cell line; 24h, 75 µM, Repeat No 2
  cell proliferation: 87%
HeLa cell line; 24h, 100 µM, Repeat No 1
  cell proliferation: 87%
HeLa cell line; 24h, 100 µM, Repeat No 2
  cell proliferation: 91%
HeLa cell line; 48h, 10 µM, Repeat No 1
  cell proliferation: 86%
HeLa cell line; 48h, 10 µM, Repeat No 2
  cell proliferation: 93%
HeLa cell line; 48h, 25 µM, Repeat No 1
  cell proliferation: 101%
HeLa cell line; 48h, 25 µM, Repeat No 2
  cell proliferation: 97%
HeLa cell line; 48h, 50 µM, Repeat No 1
  cell proliferation: 81%
HeLa cell line; 48h, 50 µM, Repeat No 2
  cell proliferation: 87%
HeLa cell line; 48h, 75 µM, Repeat No 1
  cell proliferation: 91%
HeLa cell line; 48h, 75 µM, Repeat No 2
  cell proliferation: 89%
HeLa cell line; 48h, 100 µM, Repeat No 1
  cell proliferation: 88%
HeLa cell line; 48h, 100 µM, Repeat No 2
  cell proliferation: 92%
T47D cell line; 24h, 10 µM, Repeat No 1
  cell proliferation: 82%
T47D cell line; 24h, 10 µM, Repeat No 2
  cell proliferation: 84%
T47D cell line; 24h, 25 µM, Repeat No 1
  cell proliferation: 83%
T47D cell line; 24h, 25 µM, Repeat No 2
  cell proliferation: 88%
T47D cell line; 24h, 50 µM, Repeat No 1
  cell proliferation: 78%
T47D cell line; 24h, 50 µM, Repeat No 2
  cell proliferation: 76%
T47D cell line; 24h, 75 µM, Repeat No 1
  cell proliferation: 71%
T47D cell line; 24h, 75 µM, Repeat No 2
  cell proliferation: 79%
T47D cell line; 24h, 100 µM, Repeat No 1
  cell proliferation: 73%
T47D cell line; 24h, 100 µM, Repeat No 2
  cell proliferation: 78%
T47D cell line; 48h, 10 µM, Repeat No 1
  cell proliferation: 79%
T47D cell line; 48h, 10 µM, Repeat No 2
  cell proliferation: 71%
T47D cell line; 48h, 25 µM, Repeat No 1
  cell proliferation: 79%
T47D cell line; 48h, 25 µM, Repeat No 2
  cell proliferation: 81%
T47D cell line; 48h, 50 µM, Repeat No 1
  cell proliferation: 81%
T47D cell line; 48h, 50 µM, Repeat No 2
  cell proliferation: 79%
T47D cell line; 48h, 75 µM, Repeat No 1
  cell proliferation: 69%
T47D cell line; 48h, 75 µM, Repeat No 2
  cell proliferation: 74%
T47D cell line; 48h, 100 µM, Repeat No 1
  cell proliferation: 78%
T47D cell line; 48h, 100 µM, Repeat No 2
  cell proliferation: 71%
A549 cell line; A549, 24h, 10 µM, Repeat No 1
  cell proliferation: 88%
A549 cell line; A549, 24h, 10 µM, Repeat No 2
  cell proliferation: 99%
A549 cell line; A549, 24h, 25 µM, Repeat No 1
  cell proliferation: 88%
A549 cell line; A549, 24h, 25 µM, Repeat No 2
  cell proliferation: 88%
A549 cell line; A549, 24h, 50 µM, Repeat No 1
  cell proliferation: 92%
A549 cell line; A549, 24h, 50 µM, Repeat No 2
  cell proliferation: 101%
A549 cell line; A549, 24h, 75 µM, Repeat No 1
  cell proliferation: 103%
A549 cell line; A549, 24h, 75 µM, Repeat No 2
  cell proliferation: 99%
A549 cell line; A549, 24h, 100 µM, Repeat No 1
  cell proliferation: 87%
A549 cell line; A549, 24h, 100 µM, Repeat No 2
  cell proliferation: 94%
A549 cell line; A549, 48h, 10 µM, Repeat No 1
  cell proliferation: 92%
A549 cell line; A549, 48h, 10 µM, Repeat No 2
  cell proliferation: 99%
A549 cell line; A549, 48h, 25 µM, Repeat No 1
  cell proliferation: 94%
A549 cell line; A549, 48h, 25 µM, Repeat No 2
  cell proliferation: 91%
A549 cell line; A549, 48h, 50 µM, Repeat No 1
  cell proliferation: 97%
A549 cell line; A549, 48h, 50 µM, Repeat No 2
  cell proliferation: 91%
A549 cell line; A549, 48h, 75 µM, Repeat No 1
  cell proliferation: 83%
A549 cell line; A549, 48h, 75 µM, Repeat No 2
  cell proliferation: 87%
A549 cell line; A549, 48h, 100 µM, Repeat No 1
  cell proliferation: 91%
A549 cell line; A549, 48h, 100 µM, Repeat No 2
  cell proliferation: 87%
[7]
  MIC: > 1000 µg/mL
[8]
  MBC: 15.6 µg/mL (≈ 29.8 µM)
  MIC: 15.6 µg/mL (≈ 29.8 µM)
